Earlier results in patent publication US7670620B2, “Topical composition for the treatment of psoriasis and related skin disorders” (Bioderm, Inc., priority 2000, dated 2010).

Tested on: fibroblasts
Settings: in vitro; Karzel and Domenjoz 1971

| SMILES | Secretion of mucopolysaccharides by fibroblasts |
| --- | --- |
| N[C@H]1C(O)O[C@H](CO)[C@@H](O)[C@@H]1O (stereo partly drawn) [glucosamine] | significantly increases secretion of mucopolysaccharides by fibroblasts |
| CC(=O)N[C@H]1C(O)O[C@H](CO)[C@@H](O)[C@@H]1O (stereo partly drawn) [N-acetylglucosamine] | also worked, but to a lesser degree |
| CC(=O)N[C@H]1C(O)O[C@H](CO)[C@H](O)[C@@H]1O (stereo partly drawn) [N-acetylgalactosamine] | also worked, but to a lesser degree |
